The data set is described as follows: Initial stability tests of synthetic/purified 9CBC. It counts as physicochemical.

In the case of `CC1=C(/C=C/C(C)=C\C=C\C(C)=C\C=C\C=C(C)\C=C\C=C(C)\C=C\C2=C(C)CCCC2(C)C)C(C)(C)CCC1` [9CBC, 9-cis-β-carotene], the “Time to full decomposition” value (sensitive to oxygen and UV degradation) is on record as “less than 24 hours”. Also, the “Stability of purified 9CBC” value (under vacuum or nitrogen flushing) was “unstable”.

(Values after patent US20220098149A1, “METHOD FOR SYNTHESIS OF 9-CIS-BETA-CAROTENE AND FORMULATIONS THEREOF” (Ramot at Tel-Aviv University Ltd., priority 2016, published 2022).)
